# Data published in patent US8232245B2, “Caspofungin formulations” (Sandoz AG, priority 2006, dated 2012).
# Assay: Solubility / dissolution in water and solid form stability of caspofungin propionate
# Assay type: physicochemical
SMILES,time to dissolve (533.5 mg crystalline salt in 5 ml aqueous mannitol 40 mg/ml / sucrose 60 mg/ml) [min],solubility in water,stability of solid form (crystalline versus amorphous form)
"CCC(C)CC(C)CCCCCCCCC(=O)N[C@H]1C[C@@H](O)[C@@H](NCCN)NC(=O)[C@@H]2[C@@H](O)CCN2C(=O)[C@H]([C@H](O)CCN)NC(=O)[C@H]([C@H](O)[C@@H](O)c2ccc(O)cc2)NC(=O)[C@@H]2C[C@@H](O)CN2C(=O)[C@H]([C@@H](C)O)NC1=O (stereo partly drawn) [Caspofungin dipropionate, caspofungin dipropionate]",≤ 3,,
"CCC(C)CC(C)CCCCCCCCC(=O)N[C@H]1C[C@@H](O)[C@@H](NCCN)NC(=O)[C@@H]2[C@@H](O)CCN2C(=O)[C@H]([C@H](O)CCN)NC(=O)[C@H]([C@H](O)[C@@H](O)c2ccc(O)cc2)NC(=O)[C@@H]2C[C@@H](O)CN2C(=O)[C@H]([C@@H](C)O)NC1=O (stereo partly drawn) [Crystalline caspofungin propionate, caspofungin propionate]",,freely soluble in water,more stable than the amorphous form
